Laboratory results taken from patent US20170066759A1, “AROMATIC 5-MEMBERED HETEROCYCLIC DERIVATIVE HAVING TRPV4-INHIBITING ACTIVITY” (Shionogi & Co., Ltd., priority 2012, published 2017).

biological target: T1, human TRPV4 (hTRPV4/CHO cells) (Homo sapiens, UniProt Q9HBA0); assay: Test Example 1: TRPV4 inhibitory activity (IC50 value), 4α-PDD stimulation, Fluo4 calcium fluorescence (FLIPR TETRA); assay type: cell-based; settings: Test Example 1, 4α-PDD stimulation, read-out: Test 1 IC50
T1 construct: expressed in transfected cells; host or cells: CHO-K1
T1 sequence (Q9HBA0 whole entry): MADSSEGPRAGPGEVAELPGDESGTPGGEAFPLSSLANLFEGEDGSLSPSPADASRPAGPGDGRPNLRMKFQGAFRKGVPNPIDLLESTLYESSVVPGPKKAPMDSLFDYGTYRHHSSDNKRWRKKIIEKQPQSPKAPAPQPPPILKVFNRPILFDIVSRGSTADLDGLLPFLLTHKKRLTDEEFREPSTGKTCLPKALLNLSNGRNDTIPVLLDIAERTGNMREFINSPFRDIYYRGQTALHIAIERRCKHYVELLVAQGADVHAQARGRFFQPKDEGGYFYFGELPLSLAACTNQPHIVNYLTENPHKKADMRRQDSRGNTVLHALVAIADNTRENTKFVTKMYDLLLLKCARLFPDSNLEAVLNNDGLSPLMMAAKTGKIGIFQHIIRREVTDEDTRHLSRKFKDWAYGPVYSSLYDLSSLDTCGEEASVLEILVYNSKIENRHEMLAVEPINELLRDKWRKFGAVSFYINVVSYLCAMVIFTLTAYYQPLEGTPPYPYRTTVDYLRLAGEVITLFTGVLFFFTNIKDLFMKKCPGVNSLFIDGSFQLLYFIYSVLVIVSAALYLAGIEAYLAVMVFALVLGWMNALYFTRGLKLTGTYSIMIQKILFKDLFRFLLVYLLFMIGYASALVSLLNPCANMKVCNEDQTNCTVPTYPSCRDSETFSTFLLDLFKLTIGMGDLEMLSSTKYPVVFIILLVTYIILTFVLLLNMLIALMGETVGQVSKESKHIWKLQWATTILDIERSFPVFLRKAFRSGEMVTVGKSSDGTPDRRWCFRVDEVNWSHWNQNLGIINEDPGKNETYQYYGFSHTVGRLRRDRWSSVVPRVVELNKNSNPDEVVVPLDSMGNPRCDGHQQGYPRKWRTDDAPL

Row | SMILES | IC50 [nM]
1 | Cc1nc(C)c(-c2csc(NC(=O)Cc3cc(O)cc(C(=O)N[C@H](c4ccccc4)C(F)(F)F)c3)n2)s1 [Compound I-511] | 1000 to 8000
2 | Cc1nc(C)c(-c2nc(NC(=O)Cc3c(F)cccc3F)sc2-c2cnn(C)c2)s1 [Compound I-62] | 1000 to 8000
3 | Cc1nc(C)c(-c2nc(NC(=O)Cc3c(F)cccc3F)sc2I)s1 [Compound I-65] | 1000 to 8000
4 | Cc1nc(CO)sc1-c1csc(NC(=O)C2CC(N3CCC(F)(F)C3)C2)n1 (stereo not shown) [Compound I-362] | 1000 to 8000
5 | COCCOc1nc(C)c(-c2csc(NC(=O)Cc3ccc(S(=O)(=O)C(F)(F)F)cc3)n2)s1 [Compound I-445] | 1000 to 8000
6 | Cc1nc(C)c(-c2csc(NC(=O)Cc3ccc(S(=O)(=O)Nc4ccccc4)cc3)n2)s1 [Compound I-164] | 100 to 1000
7 | Cc1nc(C)c(-c2csc(NC(=O)C3Cc4ccccc4N3C)n2)s1 (stereo not shown) [Compound I-175] | 100 to 1000
8 | O=C(Cc1ccc(S(=O)(=O)C(F)(F)F)cc1)Nc1nc(-c2sc(CO)nc2CN2CCOCC2)cs1 [Compound I-385] | 100 to 1000
9 | Cc1nc(CO)sc1-c1csc(NC(=O)C2CC(=O)N(c3ccccc3)C2)n1 (stereo not shown) [Compound I-199] | 100 to 1000
10 | Cc1nc(C)c(-c2nc(NC(=O)Cc3c(F)cccc3F)sc2-c2ccc(O)cc2)s1 [Compound I-69] | 1000 to 8000
11 | Cc1nc(CO)sc1-c1csc(NC(=O)C2CCN(Cc3ccccc3)C2)n1 (stereo not shown) [Compound I-209] | 1000 to 8000
12 | Cc1nc(C)c(-c2csc(NC(=O)Cc3cccc(CN(C)C)c3)n2)s1 [Compound I-101] | 1000 to 8000
13 | Cc1nc(CO)sc1-c1csc(NC(=O)C2CC(N3CCC(F)(F)C3)C2)n1 (stereo not shown) [Compound I-361] | 1000 to 8000
14 | Cc1nc(C(C)O)sc1-c1csc(NC(=O)[C@H]2C[C@@H](F)C2)n1 (mixture of isomers) [Compound I-299] | 1000 to 8000
15 | O=C(Nc1nc(-c2sc(CO)nc2CO)cs1)[C@H]1C[C@H](F)C1 [Compound I-248] | 1000 to 8000
16 | Cc1nc(C)c(-c2csc(NC(=O)Cc3ccc(S(=O)(=O)N(C)c4cccnc4)cc3)n2)s1 [Compound I-165] | 100 to 1000

The remaining lines, values ahead:

Row | IC50 [nM] | SMILES
17 | 100 to 1000 | Cc1nc(C)c(-c2csc(NC(=O)Cn3cc(C4CC4)nn3)n2)s1 [Compound I-430]
18 | 100 to 1000 | Cc1nc(CO)sc1-c1csc(NC(=O)C2CC(c3ccccc3)=NO2)n1 (stereo not shown) [Compound I-207]
19 | < 100 | Cc1nc(C)c(-c2csc(NC(=O)C3Cc4cc(S(=O)(=O)N(C)C)c(Cl)c(Cl)c4O3)n2)s1 (stereo not shown) [Compound I-196]
20 | 100 to 1000 | COC(=O)c1cccc(CC(=O)Nc2nc(-c3sc(C)nc3C)cs2)n1 [Compound I-509]
21 | 100 to 1000 | Cc1nc(C(C)(C)O)sc1-c1csc(NC(=O)Cc2c(F)cccc2F)n1 [Compound I-97]
22 | 100 to 1000 | O=C(Cc1ccc(S(=O)(=O)C(F)(F)F)cc1)Nc1nc(-c2sc(CO)nc2CN2CCCC2=O)cs1 [Compound I-463]
23 | < 100 | Cc1nc(C)c(-c2csc(NC(=O)Cn3cc(-c4ccccc4)cn3)n2)s1 [Compound I-134]
24 | < 100 | Cc1nc(CO)sc1-c1csc(NC(=O)C2CC3(CCC3)C2)n1 [Compound I-450]
25 | < 100 | NC(=O)OCc1nc(CO)sc1-c1csc(NC(=O)Cc2ccc(S(=O)(=O)C(F)(F)F)cc2)n1 [Compound I-373]
26 | < 100 | Cc1nc(CO)sc1-c1csc(NC(=O)C2CC(c3ccccc3)C2)n1 (stereo not shown) [Compound I-547]
27 | < 100 | O=C(Cc1ccc(S(=O)(=O)C(F)(F)F)cc1)Nc1nc(-c2sc(CO)nc2CNC(=O)C2(C(F)(F)F)CC2)cs1 [Compound I-439]
28 | < 100 | Cc1nc(C)c(-c2csc(NC(=O)Cc3cccc(NS(=O)(=O)c4ccccc4)c3)n2)s1 [Compound I-418]
29 | < 100 | Cc1nc(C)c(-c2csc(NC(=O)[C@H]3CCN(c4ncc(C(F)(F)F)cn4)C3)n2)s1 [Compound I-388]
30 | < 100 | CC(C)OC(=O)NCc1nc(CO)sc1-c1csc(NC(=O)C2CN(c3ccc(C(F)(F)F)cc3)C2)n1 [Compound I-350]
31 | < 100 | CC(O)c1nc(CO)sc1-c1csc(NC(=O)Cc2ccc(S(=O)(=O)C(F)(F)F)cc2)n1 (racemic) [Compound I-235]
